Data published in patent US20240197891A1, “PHARMACEUTICAL COMPOSITIONS COMPRISING POH DERIVATIVES” (UNIVERSITY OF SOUTHERN CALIFORNIA, priority 2021, published 2024).

Experiments:
[1] = test system: follistatin, α6β4 integrin, Yap1; test: Staining of the skin for follistatin, α6β4 integrin and Yap1; type: in vivo
Source text: Activins are members of the transforming growth factor-β family of growth and differentiation factors. The biological activity of activins is regulated by the secreted glycoprotein follistatin, which sequesters activins and thus inhibits their biological activities. Follistatin controls keratinocyte proliferation in skin wounds. Most importantly, it has been shown that limited activation of activin in keratinocytes is beneficial for the wound healing process. FIGS. 27A-C show the staining of the skin with activation of follistatin with POH-LA conjugate (FIG. 27A), POH, (FIG. 27B), and Linoleic Acid (FIG. 27C).
FIGS. 27D-F show the staining of the skin with activation of α6β4 integrin with POH-LA conjugate (FIG. 27D), POH, (FIG. 27E), and Linoleic Acid (FIG. 27F).
Yap1 is a critical modulator of epidermal stem cell proliferation and tissue expansion. α-catenin controls Yap1 activity and phosphorylation by modulating its interaction with 14-3-3 and the PP2A phosphatase. This aids in the identification of Yap1 as a determinant of the proliferative capacity of epidermal stem cells and as an important effector of a “crowd control” molecular circuitry in mammalian skin. FIGS. 27G-I show the staining of the skin with activation of Yap1 with POH-LA conjugate (FIG. 27G), POH, (FIG. 27H), and Linoleic Acid (FIG. 27I).

IL-6 = test: Serum IL-6 following UV exposure; type: in vivo, mouse
Method: SKH-1 hairless mice were treated with 10 mg/kg POH-LA conjugate freshly prepared daily. The POH-LA conjugate was formulated in glycerol:ethanol (90:10) while the control animals received the glycerol:ethanol vehicle only or the commercially available sunblock (Well & Good Sun Protection Wipes SPF 15). Additional test groups were treated with POH formulated in the glycerol:ethanol vehicle or linoleic acid formulated in the glycerol:ethanol vehicle. 50 μL of each formulation was placed on a area 1 cm^2 area that was exposed to the UV light. The mice were treated with their respective formulations after exposure to the UV light. In FIG. 22A, the mouse was treated with sunblock. In FIG. 22B, the mouse was treated with POH. In FIG. 22C, the mouse was treated with linoleic acid. In FIG. 22D, the mouse was treated with POH-LA conjugate. […] The POH-LA conjugate, POH or linoleic acid solutions were gently spread on the skin surface and allowed to air dry. The sunblock mouse was gently wiped on the exposure area with the sunblock towelette. This exposure and treatment went on for a maximum of 10 weeks. Throughout the experimental period the animals were photographed and weighed. At the end of the experimental period the mice were photographed and euthanized, followed by skin and blood collection. Blood was analyzed for markers of inflammation and DNA recovered from the exposed area of the skin and analyzed for markers of DNA damage.
Furthermore, blood samples were taken from each mouse 4 hours after the last cutaneous treatment. About 0.5 mL of blood was collected by cardiac puncture […]. Serum was aliquoted in Eppendorf tubes and store at −80° C. as preparation for cytokine analyses. […]
Mice were treated with 10 mg/kg POH-LA conjugate freshly prepared daily. […] Blood was analyzed for markers of inflammation and DNA recovered from the exposed area of the skin and analyzed for markers of DNA damage.

[2] = test system: skin inflammation induced by asTPA; test: asTPA-induced skin inflammation in mice; type: in vivo, mouse; conditions: topical, 3 days pretreatment plus 7 days asTPA, glycerol:ethanol (90:10)
Method: A first group of mice were pre-treated with a solution of 50 microliters (μL) of a conjugate of POH and linoleic acid (e.g., linoleoyl ester of POH) in a vehicle of a glycerol:ethanol (90:10) mixture. The POH-linoleic acid conjugate solution was applied on the hip flank of the mice for a period of 3 days. A second, control group of mice were treated solely with the glycerol:ethanol (90:10) vehicle.
After pre-treatment, skin inflammation was induced on the first and second groups of mice by daily cutaneous application of an acetonic solution of 12-0-Tetradecanoylphorbol-13-acetate (asTPA) (which is a known irritant) to the backs of the mice over seven days. The asTPA was not applied to a further control group. To facilitate application of the asTPA, mice were anaesthetized by inhalation of isofluorane. 100 microliters of asTPA (corresponding to 20 micrograms (μg) of TPA) was then applied onto the skin of the mice. Upon evaporation of the asTPA, the mice were returned to their cages.
During the seven-day period in which the first and second groups of mice were subjected to application of asTPA, the first group continued to receive treatment of the POH-linoleic acid conjugate and vehicle solution, and the second group continued to receive treatment of the vehicle. At the end of the seven-day period, the mice were photographed.

[3] = test system: TMZ sensitive (U251) cells; test: Colony forming assay, TMZ sensitive U251 cells; type: cell-based, human; conditions: TMZ sensitive U251 cells
Method: (§1) Colony forming assays were carried out after cells were treated with TMZ alone, POH alone, and the TMZ-POH conjugate. […] Cancer Lett. 2011 Mar. 28; 302(2):100-8.

[4] = test system: USC-02 glioma cancer stem cells; test: MTT cytotoxicity assay, USC-02 glioma cancer stem cells; type: cell-based; conditions: USC-02; increasing concentrations (TMZ 0-400 uM; POH 0-2 mM)
Source text: (§2) Cancer Lett. 2011 Mar. 28; 302(2):100-8.

[5] = test system: TMZ resistant (U251TR) U251 cells; test: Colony forming assay, TMZ resistant U251TR cells; type: cell-based, human
Method: as §1

[6] = test system: USC-04 glioma cancer stem cells; test: MTT cytotoxicity assay, USC-04 glioma cancer stem cells; type: cell-based; conditions: USC-04; increasing concentrations (TMZ 0-400 uM; POH 0-2 mM)
Source text: as §2

SMILES | activation of cellular proteins [1] | skin regeneration via stem cell activation [1] | IL-6 levels (IL-6) [pg/mL] | skin appearance where asTPA was applied [2] | cytotoxicity (colony forming assay) [3] | cytotoxicity (MTT) [4] | cytotoxicity (colony forming assay) [5] | cytotoxicity (MTT) [6]
C=C(C)[C@@H]1CC=C(COC(=O)CCCCCCC/C=C\C/C=C\CCCCC)CC1 [POH-LA conjugate, Octadeca-9,12-dienoic acid 4-isopropenyl-cyclohex-1-enylmethyl ester] | enhance the activation of cellular proteins | stimulate skin regeneration via stem cell activation | 15.2 ± 4.1 | no inflammation or flaking |  |  |  | 
C=C(C)[C@@H]1CC=C(CO)CC1 [POH, perillyl alcohol] |  |  | 17.9 ± 2.8 |  | demonstrated cytotoxicity | demonstrated cytotoxicity | demonstrated cytotoxicity | demonstrated cytotoxicity
